Results published in patent publication US20120269725A1, “TARGETED RADIOLABELED COMPOUNDS AND THEIR USE FOR THE TREATMENT AND DIAGNOSIS OF CANCER” (priority 2009, published 2012).
Where two headings read alike, the source gives them in different places.

Key:
human BChE = human BChE (Homo sapiens, UniProt P06276); test: UV-based BChE inhibition (IC50) assay; format: biochemical; settings: non-radioactive compounds, 30 min preincubation, room temperature, pH 7.0
Protocol: Assays employed to determine IC50 were developed by the present inventors and utilized UV based detection. For UV-based assays, a BChE solution in 0.1 M potassium phosphate, pH 7.0 was placed in the desired numbers of wells of a 96-well plate (0.05 mL/well). The investigated compound was diluted in DMSO to produce concentrations from 0 to 10 μM in DMSO and 0.002 mL/well of these dilutions was added to BChE-containing wells. Reaction mixtures were incubated at room temperature for 30 min. The reagent consisting of BChE substrate, 1 mM (2-mercaptoethyl)trimethylammonium iodide butyrate, and 0.5 mM 5,5′-dithio-bis(2-nitrobenzoic acid) in 0.1 M potassium phosphate, pH 7.0 (prepared fresh for each assay) was added, 0.25 mL per well. The mixture was incubated at room temperature and the OD at λ=405 nm was read at 1, 2, 3, 4, 5, 10, and 15 min after the addition of this reagent using the Opsys MR™plate reader (Dynex Technologies, Chantilly, Va.). Data were analyzed using the IC50 nonlinear regression function provided by GraphPad Prism (GraphPad Software, La Jolla, Calif.).
The compound binding of several non-radioactive compounds of the method of the invention were analyzed by the aforementioned human BChE compound binding study to determine their affinity for the therapeutic target (Table 1).

IP OVCAR-3 tumors = test: Pilot therapy of IP OVCAR-3 tumors in athymic mice; format: in vivo; settings: for whole body retention, median / whole body retention: after 14 days; for whole body retention: value with spread in brackets
Text: In pilot therapy experiments, the effects of unmodified ^125IUdR on the growth of IP OVCAR-3 tumors were compared to the therapeutic effects of the 6b diastereomeric mixture and 7b diastereomeric mixture. The tumor model used in this study, OVCAR-3 cell line, was established from the malignant ascites of a patient with progressive adenocarcinoma of the ovary after many types of chemotherapy including cyclophosphamide, adriamycin, and cisplatin. OVCAR-3 is resistant in vitro to clinically relevant concentrations of adriamycin, melphalan, and cisplatin (Hamilton T C, Young R C, Louie K G, Behrens B C, McKoy W M, Grotzinger K R, Ozols R F. Characterization of a xenograft model of human ovarian carcinoma which produces ascites and intraabdominal carcinomatosis in mice. Cancer Res. 1984; 44:5286-90.). In immunodeficient mice, IP injected OVCAR-3 cells produce malignant ascites, peritoneal carcinomatosis, and serosal and visceral seeding that, if left untreated, leads to death from respiratory compromise, hemorrhage from invasion of intra-abdominal blood vessels, and bowel obstruction. Substantial literature data (nearly 100 publications) confirm that this tumor model has pathogenesis and metastatic properties similar to those of human ovarian cancer.
Mice received IP implants of approximately 2.4×10^8 OVCAR-3 cells/mouse isolated from fresh OVCAR-3 mouse ascites. Cell viability was measured before and after injection, and was ≧90%. Four days after tumor cells were implanted, the mice received SQ transponders and were randomized via a lottery into four groups: NT—untreated controls that received IP injection of PBS; 7b group—receiving IP doses of the 7b diastereomeric mixture in PBS (average 0.4 mCi/mouse (14.8 MBq)); 6b group—receiving IP doses of the 6b diastereomeric mixture in PBS (average dose 0.36 mCi/mouse (13.3 MBq)); and ^125IUdR group—receiving IP doses of ^125IUdR (average 0.43 mCi/mouse (15.9 MBq)) in PBS. Mice were monitored three times per week.
Mice in the 6b group received 0.22 mCi (8.1 MBq) 6b diastereomeric mixture on day 27; and on day 28 mice in ^125IUdR group were treated with additional 0.2 mCi (7.4 MBq) ^125IUdR. Slight differences in the dosing schedule and the administered doses are because of the required large quantities of the compounds. For these experiments, ˜20 mCi of no-carrier added and radiochemically pure compounds were required. Each agent was purified on the analytical reversed phase HPLC column. The use of preparative columns in this case is impractical because the products are recovered in large volumes of acetonitrile-containing solvent that must be evaporated to dryness before the use in mice.
Overall, mice in the 7b group were treated with an average of 0.58 mCi (21.5 MBq) 7b diastereomeric mixture; mice in the 6b group were treated with an average of 0.58 mCi (21.5 MBq) 6b diastereomeric mixture, and mice in the ^125IUdR group were treated with an average of 0.63 mCi (23.3 MBq) ^125IUdR.
The therapy was terminated 7 weeks after the first dosing. Mice were sacrificed for the biodistribution study. Blood and solid tumor were taken for the evaluation of their radioactive content. The peritoneal cavity was lavaged with 2-mL aliquots of PBS, and PBS wash and ascites were collected. One mL of the ascites suspension with cancer cells was taken for gamma counting. The rest of the abdominal fluid was centrifuged and 0.5 mL of the supernatant was reserved for gamma counting. The weight of the cell pellet and the supernatant were determined.
Two weeks after the first dose of radiolabeled compounds, the whole body radioactivity was measured to determine to what extent the additional doses of the compounds may increase the radiation burden and therefore may be detrimental to the animal health (FIG. 11B). The absolute amounts were low and ranged from […] for the 6b group to […] in the 7b group. […]

Sequence of human BChE (P06276 29-602): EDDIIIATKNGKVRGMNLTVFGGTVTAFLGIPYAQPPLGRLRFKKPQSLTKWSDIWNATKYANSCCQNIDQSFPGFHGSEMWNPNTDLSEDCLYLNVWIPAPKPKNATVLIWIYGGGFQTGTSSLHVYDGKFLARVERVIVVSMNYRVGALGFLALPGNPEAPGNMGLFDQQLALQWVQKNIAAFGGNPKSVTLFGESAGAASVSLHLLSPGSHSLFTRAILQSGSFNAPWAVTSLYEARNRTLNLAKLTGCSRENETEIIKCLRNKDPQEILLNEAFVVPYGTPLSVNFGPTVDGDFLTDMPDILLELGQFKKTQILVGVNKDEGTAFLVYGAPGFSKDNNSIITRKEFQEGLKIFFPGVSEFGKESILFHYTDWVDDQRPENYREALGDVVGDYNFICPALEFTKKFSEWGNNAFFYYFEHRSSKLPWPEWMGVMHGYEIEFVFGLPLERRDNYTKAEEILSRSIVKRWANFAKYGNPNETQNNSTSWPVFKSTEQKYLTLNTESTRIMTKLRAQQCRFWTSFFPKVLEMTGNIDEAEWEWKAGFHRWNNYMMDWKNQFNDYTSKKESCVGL

Compound `O=c1[nH]c(=O)n(C2CC(O)C(COP3(=O)OCc4ccccc4O3)O2)cc1I` (single isomer, unassigned) [6 - fast, 5-Iodo-5′-O-cycloSaligenyl-2′-deoxyuridine Monophosphate] has an IC50 (human BChE; IC50 (nM)) of 1280 nM.
For `O=c1[nH]c(=O)n(C2CC(O)C(COP3(=O)OCc4ccccc4O3)O2)cc1I` (single isomer, unassigned) [6 - slow, 5-Iodo-5′-O-cycloSaligenyl-2′-deoxyuridine Monophosphate], the IC50 (human BChE; IC50 (nM)) was 9.2 nM.
With `Cc1cccc2c1OP(=O)(OCC1OC(n3cc(I)c(=O)[nH]c3=O)CC1O)OC2` (single isomer, unassigned) [7 - fast, 5-Iodo-5′-O-cyclo(3-methylSaligenyl)-2′-deoxyuridine Monophosphate] the IC50 (human BChE; IC50 (nM)) was > 7000 nM.
With `Cc1cccc2c1OP(=O)(OCC1OC(n3cc(I)c(=O)[nH]c3=O)CC1O)OC2` (single isomer, unassigned) [7 - slow, 5-Iodo-5′-O-cyclo(3-methylSaligenyl)-2′-deoxyuridine Monophosphate] the IC50 (human BChE; IC50 (nM)) was 61.2 nM.
`CC(C)(C)c1cc(C(C)(C)C)c2c(c1F)COP(=O)(OC[C@H]1O[C@@H](n3cc(I)c(=O)[nH]c3=O)C[C@@H]1O)O2` (single isomer, unassigned) [8 - fast, 5-Iodo-5′-O-[cyclo-3,5-di-(tert-butyl)-6-fluoroSaligenyl]-2′-deoxyuridine Monophosphate] was tested, and the IC50 (human BChE; IC50 (nM)) was > 60000 nM.
`Cc1cn(C2CC(F)C(COP3(=O)OCc4c(F)c(C(C)(C)C)cc(C(C)(C)C)c4O3)O2)c(=O)[nH]c1=O` (single isomer, unassigned) [23 - fast, 5′-O-[cyclo-3,5-Di-(tert-butyl)-6-fluoroSaligenyl]-3′-deoxy-3′-fluorothymidine Monophosphate] showed an IC50 (human BChE; IC50 (nM)) of 203 nM.
Compound `Cc1cn(C2CC(F)C(COP3(=O)OCc4c(F)c(C(C)(C)C)cc(C(C)(C)C)c4O3)O2)c(=O)[nH]c1=O` (single isomer, unassigned) [23 - slow, 5′-O-[cyclo-3,5-Di-(tert-butyl)-6-fluoroSaligenyl]-3′-deoxy-3′-fluorothymidine Monophosphate] has an IC50 (human BChE; IC50 (nM)) of 42.6 nM.
With `CC(C)(C)c1cc(C(C)(C)C)c2c(c1F)COP(=O)(OCC1OC(n3cc(I)c(=O)[nH]c3=O)CC1F)O2` (single isomer, unassigned) [24 - fast, 5-Iodo-5′-O-[cyclo-3,5-Di-(tert-butyl)-6-fluoroSaligenyl]-3′-fluoro-2′,3′-dideoxyuridine Monophosphate] the IC50 (human BChE; IC50 (nM)) was 549 nM.
Work on `CC(C)(C)c1cc(C(C)(C)C)c2c(c1F)COP(=O)(OCC1OC(n3cc(I)c(=O)[nH]c3=O)CC1F)O2` (single isomer, unassigned) [24 - slow, 5-Iodo-5′-O-[cyclo-3,5-Di-(tert-butyl)-6-fluoroSaligenyl]-3′-fluoro-2′,3′-dideoxyuridine Monophosphate] yielded an IC50 (human BChE; IC50 (nM)) of 19.8 nM.
`CC(C)(C)c1cc(C(C)(C)C)c2c(c1F)COP(=O)(OC[C@H]1O[C@@H](n3cc(I)c(=O)[nH]c3=O)C[C@@H]1O)O2` (stereo partly shown) [8 - slow, 5-Iodo-5′-O-[cyclo-3,5-di-(tert-butyl)-6-fluoroSaligenyl]-2′-deoxyuridine Monophosphate] gave an IC50 (human BChE; read-out: IC50) of 50.1 nM.
With `Cc1cccc2c1OP(=O)(OC[C@H]1O[C@@H](n3cc([125I])c(=O)[nH]c3=O)C[C@@H]1O)OC2` (stereo partly shown) [Compound 7b, 5-[^125I]-Iodo-5′-O-cyclo(3-methylSaligenyl)-2′-deoxyuridine Monophosphate] the “whole body retention, median” value (IP OVCAR-3 tumors) was 1.25 % ID, the whole body retention (IP OVCAR-3 tumors) was 1.21 (0.12) % ID and the “reduction in solid tumor deposits as compared to ^125IUdR” value (IP OVCAR-3 tumors; diastereomeric mixtures IP, total average 0.58 mCi, 7 weeks after first dose) was ~50%. For the same compound, the “tumor retention compared to ^125IUdR” value (IP OVCAR-3 tumors; necropsy 4 weeks after the boost dose) was “significantly higher compared to ^125IUdR”.
For `O=c1[nH]c(=O)n([C@H]2C[C@H](O)[C@@H](CO)O2)cc1[125I]` [^125IUdR, 5-[^125I]-iodo-2′-deoxyuridine, reference compound], the “whole body retention, median” value (IP OVCAR-3 tumors) was 1.08 % ID and the whole body retention (IP OVCAR-3 tumors) was 0.97 (0.11) % ID.
